# Compound: C(C(=O)C(=O)O)Br [Bromopyruvate] + O=C(c1cc(Cc2n[nH]c(=O)c3ccccc23)ccc1F)N1CCN(C(=O)C2CC2)CC1 [Olaparib] (partner 8 µM)
# Assay: relative viability (nuclei count vs DMSO), 5 days (fraction); higher = more cells survive
# Details: first compound 1 µM
# In short: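 Relative viability was taken as the ratio of nuclei in treated wells to nuclei in vehicle wells. Lung cancer cell lines in 1536-well plates received compounds by pin tool one day after seeding, either one drug alone or a fixed anchor-drug dose plus five library-drug doses (not always all listed) in √10 steps. Nuclei were counted on 4× images after 5 days of treatment, and values are medians of duplicate plates.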
row,Cell Line,relative viability
1,NCI-H522,0.615
2,NCI-H838,0.758
3,NCI-H1650,0.82
4,EBC-1,0.691
5,NCI-H1703,0.648
6,NCI-H2009,0.672
7,NCI-H1993,1.56
8,PC-14,0.297
9,LCLC-103H,0.744
10,NCI-H596,0.755
11,NCI-H2228,0.813
12,EMC-BAC-2,0.499
13,NCI-H2087,0.6
14,Calu-6,0.579
15,HCC-366,0.365
16,NCI-H1666,0.685
17,NCI-H647,0.567
18,LK-2,0.827
19,NCI-H2126,0.912
20,NCI-H2342,0.477
21,SK-MES-1,0.802
22,H3255,0.579

row,Cell Line,relative viability
1,COR-L23,0.398
2,COR-L 105,0.771
3,IA-LM,0.839
4,LOU-NH91,1
5,ChaGo-K-1,0.417
6,NCI-H2170,0.626
7,NCI-H3122,0.647
8,HOP-62,0.373
9,HCC-44,0.939
10,SW 900,0.892
11,LU99A,0.267
12,BEN,0.96
13,HARA,0.836
14,NCI-H1648,0.731
15,NCI-H2023,0.452
16,NCI-H520,0.37
17,SW 1573,0.555
18,NCI-H1299,0.937
19,CAL-12T,0.654
20,SK-LU-1,0.425
21,NCI-H661,0.734

# Same assay, conditions: first compound 3.162 µM
row,Cell Line,relative viability
1,NCI-H522,0.54
2,NCI-H838,0.757
3,NCI-H1650,0.734
4,EBC-1,0.594
5,NCI-H1703,0.418
6,NCI-H2009,0.688
7,NCI-H1993,1
8,PC-14,0.368
9,LCLC-103H,0.773
10,NCI-H596,0.645
11,NCI-H2228,0.635
12,EMC-BAC-2,0.481
13,NCI-H2087,0.574
14,Calu-6,0.581
15,HCC-366,0.323
16,NCI-H1666,0.733
17,NCI-H647,0.541
18,LK-2,0.816
19,NCI-H2126,0.879
20,NCI-H2342,0.367
21,SK-MES-1,0.738
22,H3255,0.591

row,Cell Line,relative viability
1,COR-L23,0.342
2,COR-L 105,0.71
3,IA-LM,0.857
4,LOU-NH91,0.902
5,ChaGo-K-1,0.466
6,NCI-H2170,0.556
7,NCI-H3122,0.663
8,HOP-62,0.432
9,HCC-44,0.932
10,A549,0.286
11,SW 900,0.874
12,LU99A,0.237
13,BEN,0.994
14,HARA,1.45
15,NCI-H1648,0.92
16,NCI-H2023,0.455
17,NCI-H520,0.32
18,SW 1573,0.469
19,NCI-H1299,0.951
20,CAL-12T,0.661
21,SK-LU-1,0.416
22,NCI-H661,0.7

# Same assay, conditions: first compound 10 µM
row,Cell Line,relative viability
1,NCI-H522,0.693
2,NCI-H838,0.86
3,NCI-H1650,0.723
4,EBC-1,0.741
5,NCI-H1703,0.335
6,NCI-H2009,0.727
7,NCI-H1993,0.927
8,PC-14,0.161
9,LCLC-103H,0.752
10,NCI-H596,0.671
11,NCI-H2228,0.711
12,EMC-BAC-2,0.408
13,NCI-H2087,0.391
14,Calu-6,0.686
15,HCC-366,0.345
16,NCI-H1666,0.73
17,NCI-H647,0.494
18,LK-2,0.815
19,NCI-H2126,0.988
20,NCI-H2342,0.376
21,SK-MES-1,0.85
22,H3255,0.558

row,Cell Line,relative viability
1,COR-L23,0.349
2,COR-L 105,0.642
3,IA-LM,0.855
4,LOU-NH91,0.974
5,ChaGo-K-1,0.431
6,NCI-H2170,0.625
7,NCI-H3122,0.631
8,HOP-62,0.798
9,HCC-44,0.969
10,A549,0.403
11,SW 900,0.936
12,LU99A,0.241
13,BEN,1.46
14,NCI-H1648,0.978
15,NCI-H2023,0.465
16,NCI-H520,0.367
17,SW 1573,0.475
18,NCI-H1299,0.963
19,CAL-12T,0.697
20,SK-LU-1,0.492
21,NCI-H661,0.799

# Same assay, conditions: first compound 31.62 µM
row,Cell Line,relative viability
1,NCI-H522,0.643
2,NCI-H838,0.781
3,NCI-H1650,0.71
4,EBC-1,0.617
5,NCI-H1703,0.633
6,NCI-H2009,0.645
7,NCI-H1993,1.09
8,PC-14,0.32
9,LCLC-103H,0.848
10,NCI-H596,0.754
11,NCI-H2228,0.567
12,EMC-BAC-2,0.516
13,NCI-H2087,0.573
14,Calu-6,0.55
15,HCC-366,0.321
16,NCI-H1666,0.707
17,NCI-H647,0.585
18,LK-2,0.591
19,NCI-H2126,0.939
20,NCI-H2342,0.377
21,SK-MES-1,0.626
22,H3255,0.563
23,COR-L23,0.319
24,COR-L 105,0.504
25,IA-LM,0.98
26,LOU-NH91,0.95
27,ChaGo-K-1,0.344
28,NCI-H2170,0.576

# Source: the supplement of paper PMC10307832
